# Experimental data reported in PubChem BioAssay (NCI).
# Values joined by “and” are separate entries in the source; they are usually repeats but may differ in a detail not shown here. Equal values may be shown once.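 Interpolation was linear, between the two tested concentrations surrounding the appropriate level; five concentrations were tested over 48 hours in 96-well plates. At the GI50, growth is halved. TGI: concentration producing complete growth inhibition.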
# What was measured:
# Assay in all cases: growth of human tumour cells (NCI), 48 h
# LOX IMVI melanoma = test system: LOX IMVI melanoma
# RPMI-8226 leukemia = test system: RPMI-8226 leukemia
# OVCAR-8 ovarian = test system: OVCAR-8 ovarian
# 786-0 renal = test system: 786-0 renal
# BT-549 breast = test system: BT-549 breast
# HOP-92 NSCLC = test system: HOP-92 NSCLC
# KM12 colon = test system: KM12 colon
# HCT-116 colon = test system: HCT-116 colon
# IGROV1 ovarian = test system: IGROV1 ovarian
# HOP-62 NSCLC = test system: HOP-62 NSCLC
Compound,GI50 (LOX IMVI melanoma),TGI (LOX IMVI melanoma) [µM],GI50 (RPMI-8226 leukemia),TGI (RPMI-8226 leukemia) [µM],GI50 (OVCAR-8 ovarian),TGI (OVCAR-8 ovarian) [µM],GI50 (786-0 renal),TGI (786-0 renal) [µM],GI50 (BT-549 breast),TGI (BT-549 breast),GI50 (HOP-92 NSCLC) [µM],TGI (HOP-92 NSCLC) [µM],GI50 (KM12 colon),TGI (KM12 colon) [µM],GI50 (HCT-116 colon),TGI (HCT-116 colon) [µM],GI50 (IGROV1 ovarian),TGI (IGROV1 ovarian) [µM],GI50 (HOP-62 NSCLC),TGI (HOP-62 NSCLC) [µM]
Cc1cnc(C(=O)NNc2nc3sc4c(c3c(=O)[nH]2)C(C)CCC4)cn1 (stereo not drawn),0.708 µM,6.37,3.39 µM,> 100,0.952 µM,16,1.56 µM,13.5,2.08 µM,> 100 µM,1.84,62.9,0.93 µM,95.6,0.672 µM,17,0.759 µM,15.8,0.273 µM,17.5
CC(=O)Oc1ccc(C2=Cc3ccc(OC(C)=O)cc3OC2C)cc1 (stereo not drawn),4.09 µM,26.2,0.59 µM,16,4.41 µM,> 100,4.1 µM,33.8,4.66 µM,69.9 µM,6.74,> 100,5.97 µM,23.2,4.87 µM,17.9,3.41 µM,17,6.07 µM,57.2
Cn1c(=O)c2nc3sc4c(n3c2n(C)c1=O)C(=O)c1ccccc1C4=O,,> 54.7,,> 83.4,,> 74.2,,> 78.2,,> 61.5 µM,,> 42.7,,> 100,,> 71.4,,> 69,,> 53.3
C=CCN(CC=C)C(=O)c1cc(C)nc2c1c(=O)n(-c1ccccc1)c(=O)n2CCCN1CCN(c2ccccc2OC)CC1,> 50 µM,> 50,> 50 µM,> 50,> 50 µM,> 50,> 50 µM,> 50,> 50 µM,> 50 µM,4.57,> 50,> 50 µM,> 50,> 50 µM,> 50,> 50 µM,> 50,> 50 µM,> 50
CC[C@H](C)[C@H](NC(=O)[C@H]1CCCCN1C)C(=O)N(C)[C@H](C[C@@H](OC(C)=O)c1nc(C(=O)NC23CC(C(=O)OC)(C2)C3)cs1)C(C)C,0.00054 µM and 0.00325 µM,> 32.5,0.000328 µM and 0.00325 µM,12.1,0.00056 µM and 0.00325 µM,> 32.5,0.00064 µM and 0.00325 µM,> 32.5,0.00048 µM and 0.00325 µM,0.0253 µM and 0.0318 µM,0.000734,,0.00319 µM and 0.00325 µM,6.6,0.000878 µM and 0.00325 µM,> 32.5,0.00132 µM and 0.00325 µM,> 32.5,0.000538 µM and 0.00325 µM,
Cc1cc(Cl)nc(N(CCNc2ccnc3cc(Cl)ccc23)Cc2ccco2)n1,1.72 µM,3.2,1.76 µM,4.27,1.93 µM,4.29,1.65 µM,3.1,1.66 µM,3.3 µM,1.2,3.55,2.01 µM,4.67,1.58 µM,3.2,1.75 µM,3.66,2.04 µM,4.79
COc1ccc(-c2[nH]c3ccc(OC)cc3c2C=C(C#N)C#N)cc1,> 100 µM,> 100,2.5 µM,> 100,> 100 µM,> 100,14.3 µM,> 100,> 100 µM,> 100 µM,> 47.9,> 100,0.52 µM,> 100,0.477 µM,> 100,> 24 µM,> 100,3.34 µM,> 100
CSc1nc2nc(-c3ccccc3)c(C)c-2c2n1C(C)C(=O)N2 (stereo not drawn),46.7 µM,> 100,16.4 µM,> 100,45.7 µM,> 100,29.2 µM,> 100,50.3 µM,> 100 µM,40.8,> 100,47.7 µM,> 100,37.4 µM,> 100,41.5 µM,> 100,44.7 µM,> 100
CC(C)Cc1ccc(C(C)/C=C2\CCC(CN(C)C)C2=O)cc1 (stereo not drawn),,15.6,,9.94,,19,,8.13,,31.1 µM,,39.1,,18.2,,23.1,,18,,25
Cc1cccc(Cn2cc(CO)c3cnccc32)c1,67.3 µM,> 100,3.82 µM,72.9,53.7 µM,> 100,> 100 µM,> 100,35.7 µM,> 100 µM,7.88,79.4,85.6 µM,> 100,36.8 µM,> 100,44.8 µM,> 100,> 100 µM,> 100
